Measurements taken from ChEMBL document CHEMBL1133987, “Broad spectrum antiprotozoal agents that inhibit histone deacetylase: structure-activity relationships of apicidin. Part 1” (Bioorg Med Chem Lett, 2001).
Values after ≈ are worked out from the molar mass of the structure shown.

Columns and labels:
[1] = system: Eimeria tenella; assay: Antiprotozoal activity (functional assay) using […] bovine kidney (MDBK) host cells infected with Eimeria tenella
[2] = molecular target: Histone deacetylase; assay: Inhibitory activity against histone deacetylase (HDAC) derived from partially purified extracts of human HeLa cells
[3] = system: Plasmodium falciparum; assay: In vitro antiprotozoal activity against Plasmodium falciparum 3D7 infected erythrocytes […]; format: functional, organism-based
[4] = system: HeLa; assay: Concentration for 50% inhibition of cell growth of human HeLa cells or foreskin fibroblasts in In vitro anti-proliferative functional assay
[5] = molecular target: Histone deacetylase; assay: Inhibitory activity against histone deacetylase (HDAC) derived from partially purified extracts of mammalian HeLa cells; parameters: species or system Homo sapiens

Row | IC50 [2] [nM] | IC50 [3] [µg/mL] | IC50 [5] [nM] | SMILES | MIC [1] [µg/mL] | AP50 [4] [ng/mL]
1 | 1450 | 1 (≈ 1.57 µM) |  | C=C(CC)CCCCC[C@@H]1NC(=O)[C@H]2CCCCN2CC(=O)[C@H]([C@@H](C)CC)NC(=O)[C@H](Cc2cn(OC)c3ccccc23)NC1=O | 1 (≈ 1.57 µM) | 
2 | 61 | 0.61 (≈ 0.978 µM) |  | CCCCCCCC[C@@H]1NC(=O)[C@H]2CCCCN2CC(=O)[C@H]([C@@H](C)CC)NC(=O)[C@H](Cc2cn(OC)c3ccccc23)NC1=O | 1 (≈ 1.6 µM) | 
3 | 144 | > 1 |  | CCC(N)CCCCC[C@@H]1NC(=O)[C@H]2CCCCN2CC(=O)[C@H]([C@@H](C)CC)NC(=O)[C@H](Cc2cn(OC)c3ccccc23)NC1=O (some centres not stated) | > 1 | 
4 | 450 | 0.85 (≈ 1.23 µM) |  | CC[C@H](C)[C@@H]1NC(=O)[C@H](Cc2cn(OC)c3ccccc23)NC(=O)[C@H](CCCCCP(=O)(OC)OC)NC(=O)[C@H]2CCCCN2CC1=O | > 1 | 
5 | 1 | 0.058 (≈ 0.0909 µM) |  | CCC(=O)CCCCC[C@@H]1NC(=O)[C@H]2CCCCN2CC(=O)[C@H]([C@@H](C)CC)NC(=O)[C@H](Cc2cn(OC)c3ccccc23)NC1=O | 0.094 (≈ 0.147 µM) | 
6 |  | 0.00024 (≈ 0.000375 µM) |  | CC[C@H](C)[C@@H]1NC(=O)[C@H](Cc2cn(OC)c3ccccc23)NC(=O)[C@H](CCCCCC(=O)NO)NC(=O)[C@H]2CCCCN2CC1=O | > 0.5 | 
7 | < 0.1 | < 0.015 |  | CC[C@H](C)[C@@H]1NC(=O)[C@H](Cc2cn(OC)c3ccccc23)NC(=O)[C@H](CCCCCC(=O)C2CO2)NC(=O)[C@H]2CCCCN2CC1=O (some centres not stated) | 0.003 (≈ 0.0046 µM) | 
8 | 60 | 1 (≈ 1.53 µM) |  | CC[C@H](C)[C@@H]1NC(=O)[C@H](Cc2cn(OC)c3ccccc23)NC(=O)[C@H](CCCCCC2(CC)CO2)NC(=O)[C@H]2CCCCN2CC1=O (some centres not stated) | > 1 | 
9 |  | 0.1 (≈ 0.149 µM) |  | CCC(=O)CCCCC[C@@H]1/N=C(\S)[C@H]2CCCCN2CC(=O)[C@H]([C@@H](C)CC)/N=C(\S)[C@H](Cc2cn(OC)c3ccccc23)NC1=O | 0.125 (≈ 0.187 µM) | 1000
10 |  | 0.1 (≈ 0.149 µM) |  | CCC(=O)CCCCC[C@@H]1NC(=O)[C@H]2CCCCN2CC(=O)[C@H]([C@@H](C)CC)/N=C(\S)[C@H](Cc2cn(OC)c3ccccc23)N=C1S | 0.125 (≈ 0.187 µM) | 1000
11 | 0.4 | 0.21 (≈ 0.328 µM) |  | CC[C@H](C)[C@@H]1NC(=O)[C@H](Cc2cn(OC)c3ccccc23)NC(=O)[C@H](CCCCCC(=O)OC)NC(=O)[C@H]2CCCCN2CC1=O | > 1 | 
12 | 2000 | 1 (≈ 1.6 µM) |  | CC[C@H](C)[C@@H]1NC(=O)[C@H](Cc2cn(OC)c3ccccc23)NC(=O)[C@H](CCCCNC(C)=O)NC(=O)[C@H]2CCCCN2CC1=O | > 1 | 
13 | 180 | > 1 |  | CC[C@H](C)[C@@H]1NC(=O)[C@H](Cc2cn(OC)c3ccccc23)NC(=O)[C@H](CCCCCP(=O)([O-])O)NC(=O)[C@H]2CCCCN2CC1=O.[K+] | > 1 | 
14 | 7 | 0.5 (≈ 0.765 µM) |  | CC[C@H](C)[C@@H]1NC(=O)[C@H](Cc2cn(OC)c3ccccc23)NC(=O)[C@H](CCCCCCC(=O)OC)NC(=O)[C@H]2CCCCN2CC1=O | > 1 | 
15 | 18 | 0.7 (≈ 1.07 µM) |  | CCC(=O)C(=O)CCCC[C@@H]1NC(=O)[C@H]2CCCCN2CC(=O)[C@H]([C@@H](C)CC)NC(=O)[C@H](Cc2cn(OC)c3ccccc23)NC1=O | 0.313 (≈ 0.48 µM) | 
16 | 848 | > 1 |  | CC[C@H](C)[C@@H]1NC(=O)[C@H](Cc2cn(OC)c3ccccc23)NC(=O)[C@H](CCCCCCC(=O)O)NC(=O)[C@H]2CCCCN2CC1=O | > 1 | 
17 | 0.3 | 0.022 (≈ 0.0336 µM) |  | CC[C@H](C)[C@@H]1NC(=O)[C@H](Cc2cn(OC)c3ccccc23)NC(=O)[C@H](CCCCCC(=O)C(C)O)NC(=O)[C@H]2CCCCN2CC1=O (some centres not stated) | 0.008 (≈ 0.0122 µM) | 
18 | 1 | 0.028 (≈ 0.0427 µM) |  | CC[C@H](C)[C@@H]1NC(=O)[C@H](Cc2cn(OC)c3ccccc23)NC(=O)[C@H](CCCCCC(=O)C(C)F)NC(=O)[C@H]2CCCCN2CC1=O (some centres not stated) | 0.062 (≈ 0.0945 µM) | 

Row | IC50 [2] [nM] | IC50 [3] [µg/mL] | IC50 [5] [nM] | SMILES | MIC [1] [µg/mL] | AP50 [4] [ng/mL]
19 | 30 | 0.9 (≈ 1.38 µM) |  | CC[C@H](C)[C@@H]1NC(=O)[C@H](Cc2cn(OC)c3ccccc23)NC(=O)[C@H](CCCCCC(=O)C(C)=O)NC(=O)[C@H]2CCCCN2CC1=O | 0.25 (≈ 0.384 µM) | 
20 | 39 |  |  | CCC(=O)C(O)CCCC[C@@H]1NC(=O)[C@H]2CCCCN2CC(=O)[C@H]([C@@H](C)CC)NC(=O)[C@H](Cc2cn(OC)c3ccccc23)NC1=O (some centres not stated) | 1 (≈ 1.53 µM) | 
21 | 110 | 0.7 (≈ 1.07 µM) |  | CCC(=O)C(F)CCCC[C@@H]1NC(=O)[C@H]2CCCCN2CC(=O)[C@H]([C@@H](C)CC)NC(=O)[C@H](Cc2cn(OC)c3ccccc23)NC1=O (some centres not stated) | 0.313 (≈ 0.477 µM) | 
22 | 15 | > 1 |  | CC[C@H](C)[C@@H]1NC(=O)[C@H](Cc2cn(OC)c3ccccc23)NC(=O)[C@H](CCCCCC(=O)O)NC(=O)[C@H]2CCCCN2CC1=O | 1 (≈ 1.6 µM) | 
23 | 282 |  |  | CC[C@H](C)[C@@H]1NC(=O)[C@H](Cc2cn(OC)c3ccccc23)NC(=O)[C@H](CCCCC(=O)O)NC(=O)[C@H]2CCCCN2CC1=O | > 1 | 
24 | 74 | > 1 |  | CC[C@H](C)[C@@H]1NC(=O)[C@H](Cc2cn(OC)c3ccccc23)NC(=O)[C@H](CCCCC(=O)OC)NC(=O)[C@H]2CCCCN2CC1=O | > 1 | 
25 | 6 | 0.5 (≈ 0.82 µM) |  | CC[C@H](C)[C@@H]1NC(=O)[C@H](Cc2cn(OC)c3ccccc23)NC(=O)[C@H](CCCCCC=O)NC(=O)[C@H]2CCCCN2CC1=O | 1 (≈ 1.64 µM) | 
26 | 2 | 0.055 (≈ 0.0882 µM) |  | CC[C@H](C)[C@@H]1NC(=O)[C@H](Cc2cn(OC)c3ccccc23)NC(=O)[C@H](CCCCCC(C)=O)NC(=O)[C@H]2CCCCN2CC1=O | 0.125 (≈ 0.2 µM) | 
27 | 110 | > 1 |  | CC[C@H](C)[C@@H]1NC(=O)[C@H](Cc2cn(OC)c3ccccc23)NC(=O)[C@H](CCCCSC(C)=O)NC(=O)[C@H]2CCCCN2CC1=O | > 1 | 
28 | 326 | > 1 |  | CC[C@H](C)[C@@H]1NC(=O)[C@H](Cc2cn(OC)c3ccccc23)NC(=O)[C@H](CCCCCSC)NC(=O)[C@H]2CCCCN2CC1=O | > 1 | 
29 | 5 | 0.35 (≈ 0.537 µM) |  | CCC(=O)C1OC1CCC[C@@H]1NC(=O)[C@H]2CCCCN2CC(=O)[C@H]([C@@H](C)CC)NC(=O)[C@H](Cc2cn(OC)c3ccccc23)NC1=O (some centres not stated) | 0.15 (≈ 0.23 µM) | 
30 | 700 | 0.35 (≈ 0.51 µM) |  | CC[C@H](C)[C@@H]1NC(=O)[C@H](Cc2cn(OC)c3ccccc23)NC(=O)[C@H](CCCCCC(=O)c2ccccc2)NC(=O)[C@H]2CCCCN2CC1=O | 1 (≈ 1.46 µM) | 
31 |  | 0.1 (≈ 0.153 µM) | 85 | CCC(=O)CCCCC[C@@H]1NC(=O)[C@H]2CCCCN2CC(=O)[C@H]([C@@H](C)CC)/N=C(\S)[C@H](Cc2cn(OC)c3ccccc23)NC1=O | 0.125 (≈ 0.191 µM) | 1000
32 |  | 0.59 (≈ 0.845 µM) |  | CCC(CCCCC[C@@H]1NC(=O)[C@H]2CCCCN2CC(=O)[C@H]([C@@H](C)CC)NC(=O)[C@H](Cc2cn(OC)c3ccccc23)NC1=O)SC(C)=O (some centres not stated) | 0.25 (≈ 0.358 µM) | 
33 | 3 | 0.9 (≈ 1.37 µM) |  | CC[C@H](C)[C@@H]1NC(=O)[C@H](Cc2cn(OC)c3ccccc23)NC(=O)[C@H](CCCCCSC(C)=O)NC(=O)[C@H]2CCCCN2CC1=O | 1 (≈ 1.52 µM) | 
34 | 235 | 0.5 (≈ 0.767 µM) |  | CC[C@H](C)[C@@H]1NC(=O)[C@H](Cc2cn(OC)c3ccccc23)NC(=O)[C@H](CCCCCC(=O)C(C)C)NC(=O)[C@H]2CCCCN2CC1=O | 0.75 (≈ 1.15 µM) | 
35 | 1 | 0.15 (≈ 0.23 µM) |  | CCCC(=O)CCCCC[C@@H]1NC(=O)[C@H]2CCCCN2CC(=O)[C@H]([C@@H](C)CC)NC(=O)[C@H](Cc2cn(OC)c3ccccc23)NC1=O | 0.125 (≈ 0.192 µM) | 
